Measurements taken from article PMC11500415, “Chemical inhibition of stomatal differentiation by perturbation of the master-regulatory bHLH heterodimer via an ACT-Like domain” (Nature Communications, 2024).
Where “and” joins values, the source holds several entries; their conditions need not be identical. Identical values can stand only once. Like-named read-outs stand apart in the source and are kept apart here.

Legend:
[1] = biological target: T1, MUTE_ACTLE162A_E163A (Arabidopsis thaliana, UniProt Q9M8K6, E162A/E163A); experiment: BLI direct binding; design: species or system A. thaliana; details: for koff: read-out: kdis(1/s), MUTE_E162A_E163A on Anti-GST sensor
T1 construct: MUTE-ACTL (114-202); made in house; host or cells: E. coli BL21
T1 sequence (Q9M8K6 114-202 E162A/E163A): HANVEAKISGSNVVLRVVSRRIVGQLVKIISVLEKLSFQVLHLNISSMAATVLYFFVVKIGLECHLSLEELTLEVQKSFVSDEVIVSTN
Source text: (§1) A. thaliana SCRM (1-494), ΔNSPCH (98-364), MUTE (1-202), ΔNFAMA (190-414), MUTEΔC (1-114), MUTER133A_R134A, MUTEE162A_E163A, MUTER133A_R134A_E162A_E163A, SCRM-ACTL (405-494), MUTE-ACTL (114-202), SPCH-ACTL (285-364), FAMA-ACTL (306-414), MUTE_ACTLR133A_R134A, MUTE_ACTLE162A_E163A, MUTE_ACTLR133A_R134A_E162A_E163A were cloned into pGEX-4T-1 vector with an N-terminal GST tag and a thrombin cleavage sequence. For protein expression, the constructs were transformed into E. coli strain BL21. For each transformant, a single colony was selected and incubated in 10 ml LB liquid media. The overnight-incubated E. coli suspensions were transferred to 1 L LB medium and incubated at 37 °C for around 2 h until the OD600 reached 0.4–0.6. The isopropyl β-D-1-thiogalactopyranoside ([…] of final concentration) was added to the cultures and the strains were incubated at 22 °C for a further 18 h. GST-fused proteins were purified using glutathione agarose resin. The soluble portion of the cell lysate was loaded onto a GST-Sepharose column. Nonspecifically bound proteins were removed by washing the column with 20 mM Tris pH 8.0, 200 mM NaCl. The bound GST-fused protein was eluted with 10 mm glutathione and 20 mM Tris pH 8.0, 200 mM NaCl. The GST-fused proteins were exchanged with phosphate-buffered saline buffer, and then the solution was treated with 50 μg of thrombin for 10–12 h at 16 ^οC. The GST portion of the protein was cleaved during thrombin digestion, and then the whole solution was reloaded onto the glutathione S-transferase column to obtain pure protein. The purified proteins were further purified by gel filtration on a Superdex-200 (GE) column using fast protein liquid chromatography and phosphate buffer (pH 7.2) as the eluent. The purity of the protein was checked by SDS-PAGE. For detailed lists of oligo DNA and plasmid information, see Supplementary Tables 5, 6, respectively.
(§2) The binding affinities of SCRM to MUTE / MUTER133A_R134A / MUTEE162A_E163A / MUTER133A_R134A_E162A_E163A in presence and absence of Stomidazolone (3) and its analogues (AYSJ1059 (5) and AYSJ1061 (6)), and Stomidazolone / AYSJ1059 / AYSJ1061 interactions with GST-tagged SCRM, MUTE, SPCH, FAMA, MUTE ΔACTL, MUTE_ACTL, SCRM_ACTL, SPCH_ACTL and FAMA_ACTL, MUTER133A_134A, MUTEE162A_E163A, MUTER133A_R134A_E162A_E163A were measured using the Octet Red96 system (ForteBio, Pall Life Sciences) following the manufacturer’s protocols. The optical probes coated with anti-GST were first loaded with 500 nM GST tagged proteins before kinetic binding analyses. The experiment was performed in 96-well plates maintained at 30 °C. Each well was loaded with 200 μL reaction volume for the experiment. The binding buffer used in these experiments contained 1× PBS supplemented with 2% DMSO, 0.02% Tween20. The concentrations of the Stomidazolone as the analyte in the binding buffer were 100, 50, 25, 12.5, 6.25, 3.12, and 1.56 μM. There was no binding of the analytes to the unloaded probes as shown by the control wells. Binding kinetics to all seven concentrations of the analytes were measured simultaneously using default parameters on the instrument. The data were analyzed using the Octet data analysis software. The association and dissociation curves were fit with the 1:1 homogeneous ligand model. The kobs (observed rate constant) values were used to calculate Kd, with steady-state analysis of the direct binding. See Supplementary Table 3 for details.

[2] = biological target: T2, MUTE_ACTLR133A_R134A_E162A_E163A (Arabidopsis thaliana, UniProt Q9M8K6, E162A/E163A/R133A/R134A); experiment: BLI direct binding; design: species or system A. thaliana; details: for Response: MUTE_R133A_R134A_E162A_E163A on Anti-GST sensor, rep-1, rep-2
T2 construct: MUTE-ACTL (114-202); made in house; host or cells: E. coli BL21
T2 sequence (Q9M8K6 114-202 R133A/R134A/E162A/E163A): as the sequence (Q9M8K6 114-202 E162A/E163A) above, with R20A, R21A counted along it
Source text: as §1, §2

[3] = MUTE_E162A_E163A on Anti-GST sensor, Stomid 3.12 µM, rep-1, rep-2
[4] = MUTE_E162A_E163A on Anti-GST sensor, Stomid 6.25 µM, rep-1, rep-2
[5] = MUTE_E162A_E163A on Anti-GST sensor, Stomid 12.5 µM, rep-1, rep-2
[6] = MUTE_E162A_E163A on Anti-GST sensor, Stomid 25 µM, rep-1, rep-2
[7] = MUTE_E162A_E163A on Anti-GST sensor, Stomid 50 µM, rep-1, rep-2
[8] = MUTE_E162A_E163A on Anti-GST sensor, Stomid 100 µM, rep-1, rep-2
[9] = MUTE_E162A_E163A on Anti-GST sensor, Stomid 200 µM, rep-1, rep-2

## O=C1C(c2ccccc2)=NC(NS(=O)(=O)c2ccccc2)(c2ccccc2)N1S(=O)(=O)c1ccccc1 (centres unmarked) [Stomidazolone]
[1]; BLI steady state, MUTE_ACTL E162A_E163A, read-out: KD (SS)
  Kd: 125 ± 12 µM
[1]; BLI, MUTE_ACTL E162A_E163A, read-out: KD
  Kd: 88.3 ± 5.5 µM
[1]; [3]
  RMax: 0.032 and 0.02
  Response: 0.0312 and 0.0195
[1]; MUTE_E162A_E163A on Anti-GST sensor, Stomid 3.12 µM, rep-1, rep-2, read-out: KD
  Kd: 86.2 µM
[1]; [4]
  RMax: 0.055 and 0.045
  Req/Rmax(%): 86.2% and 99.9%
  Response: 0.053 and 0.041
  kdis: 0.25 s⁻¹
  kon: 2770 M⁻¹ s⁻¹
[1]; MUTE_E162A_E163A on Anti-GST sensor, Stomid 6.25 µM, rep-1, rep-2, read-out: KD
  Kd: 84.8 µM and 90.2 µM
[1]; [5]
  RMax: 0.07 and 0.08
  Req/Rmax(%): 86.2% and 95.1%
  Response: 0.065 and 0.078
  kobs: 0.00218 s⁻¹ and 0.00344 s⁻¹
  kon: 2790 M⁻¹ s⁻¹
[1]; MUTE_E162A_E163A on Anti-GST sensor, Stomid 12.5 µM, rep-1, rep-2, read-out: KD
  Kd: 85.4 µM and 87.9 µM
[1]; [6]
  Req/Rmax(%): 83.8% and 88.2%
  kdis: 0.251 s⁻¹
  kobs: 0.0028 s⁻¹ and 0.00329 s⁻¹
  kon: 2870 M⁻¹ s⁻¹
[1]; MUTE_E162A_E163A on Anti-GST sensor, Stomid 25 µM, rep-1, rep-2, read-out: KD
  Kd: 87.7 µM and 87.3 µM
[1]; [7]
  RMax: 0.145 and 0.18
  Req/Rmax(%): 89.7% and 82.4%
  Response: 0.141 and 0.171
  kobs: 0.00431 s⁻¹ and 0.00272 s⁻¹
  kon: 2770 M⁻¹ s⁻¹
[1]; MUTE_E162A_E163A on Anti-GST sensor, Stomid 50 µM, rep-1, rep-2, read-out: KD
  Kd: 87.7 µM and 89 µM
[1]; [8]
  RMax: 0.256 and 0.23
  Req/Rmax(%): 98.6% and 97.1%
  Response: 0.254 and 0.2296
  kdis: 0.248 s⁻¹
  kobs: 0.0129 s⁻¹ and 0.00842 s⁻¹
  kon: 2860 M⁻¹ s⁻¹
[1]; MUTE_E162A_E163A on Anti-GST sensor, Stomid 100 µM, rep-1, rep-2, read-out: KD
  Kd: 88.7 µM and 86.6 µM
[1]; [9]
  RMax: 0.275 and 0.3
  Req/Rmax(%): 100%
  Response: 0.272 and 0.292
  kobs: 0.0343 s⁻¹
[1]; MUTE_E162A_E163A on Anti-GST sensor, Stomid 200 µM, rep-1, rep-2, read-out: KD
  Kd: 89.2 µM
[1]; Stomid 3.12 µM, rep-1, rep-2
  koff: 0.243 s⁻¹
[1]; Stomid 6.25 µM, rep-1, rep-2
  koff: 0.242 s⁻¹
[1]; Stomid 12.5 µM, rep-1, rep-2
  koff: 0.245 s⁻¹
[1]; Stomid 25 µM, rep-1, rep-2
  koff: 0.246 s⁻¹
[1]; Stomid 50 µM, rep-1, rep-2
  koff: 0.246 s⁻¹
[1]; Stomid 100 µM, rep-1, rep-2
  koff: 0.247 s⁻¹
[1]; Stomid 200 µM, rep-1, rep-2
  koff: 0.25 s⁻¹
[1]; read-out: kon(1/Ms), MUTE_E162A_E163A on Anti-GST sensor, Stomid 3.12 µM, rep-1, rep-2
  kon: 2830 M⁻¹ s⁻¹
[1]; read-out: kon(1/Ms), MUTE_E162A_E163A on Anti-GST sensor, Stomid 6.25 µM, rep-1, rep-2
  kon: 2850 M⁻¹ s⁻¹
[1]; read-out: kon(1/Ms), MUTE_E162A_E163A on Anti-GST sensor, Stomid 12.5 µM, rep-1, rep-2
  kon: 2870 M⁻¹ s⁻¹
[1]; read-out: kon(1/Ms), MUTE_E162A_E163A on Anti-GST sensor, Stomid 25 µM, rep-1, rep-2
  kon: 2800 M⁻¹ s⁻¹
[1]; read-out: kon(1/Ms), MUTE_E162A_E163A on Anti-GST sensor, Stomid 50 µM, rep-1, rep-2
  kon: 2810 M⁻¹ s⁻¹
[1]; read-out: kon(1/Ms), MUTE_E162A_E163A on Anti-GST sensor, Stomid 100 µM, rep-1, rep-2
  kon: 2780 M⁻¹ s⁻¹
[1]; read-out: kon(1/Ms), MUTE_E162A_E163A on Anti-GST sensor, Stomid 200 µM, rep-1, rep-2
  kon: 2800 M⁻¹ s⁻¹
[2]; BLI steady state, MUTE_ACTL R133A_R134A_E162A_E163A, ND = no binding was detected
  KD (SS): no binding was detected
[2]; Stomid 3.12 µM
  Response: 0.021 and 0.041
[2]; Stomid 6.25 µM
  Response: 0.061 and 0.035
[2]; Stomid 12.5 µM
  Response: 0.063 and 0.047
[2]; Stomid 25 µM
  Response: 0.078 and 0.041
[2]; Stomid 50 µM
  Response: 0.062 and 0.082
[2]; Stomid 100 µM
  Response: 0.075 and 0.108
[2]; Stomid 200 µM
  Response: 0.104 and 0.136
